For the assay, the target named is T1, HDAC6 enzyme (Homo sapiens, UniProt Q9UBN7).
T1 construct: transducing full length HDAC6 gene into Sf-9 insect cells; GST; purchased SignalChem; host or cells: Sf-9 insect cells
T1 sequence (Q9UBN7 1-1215): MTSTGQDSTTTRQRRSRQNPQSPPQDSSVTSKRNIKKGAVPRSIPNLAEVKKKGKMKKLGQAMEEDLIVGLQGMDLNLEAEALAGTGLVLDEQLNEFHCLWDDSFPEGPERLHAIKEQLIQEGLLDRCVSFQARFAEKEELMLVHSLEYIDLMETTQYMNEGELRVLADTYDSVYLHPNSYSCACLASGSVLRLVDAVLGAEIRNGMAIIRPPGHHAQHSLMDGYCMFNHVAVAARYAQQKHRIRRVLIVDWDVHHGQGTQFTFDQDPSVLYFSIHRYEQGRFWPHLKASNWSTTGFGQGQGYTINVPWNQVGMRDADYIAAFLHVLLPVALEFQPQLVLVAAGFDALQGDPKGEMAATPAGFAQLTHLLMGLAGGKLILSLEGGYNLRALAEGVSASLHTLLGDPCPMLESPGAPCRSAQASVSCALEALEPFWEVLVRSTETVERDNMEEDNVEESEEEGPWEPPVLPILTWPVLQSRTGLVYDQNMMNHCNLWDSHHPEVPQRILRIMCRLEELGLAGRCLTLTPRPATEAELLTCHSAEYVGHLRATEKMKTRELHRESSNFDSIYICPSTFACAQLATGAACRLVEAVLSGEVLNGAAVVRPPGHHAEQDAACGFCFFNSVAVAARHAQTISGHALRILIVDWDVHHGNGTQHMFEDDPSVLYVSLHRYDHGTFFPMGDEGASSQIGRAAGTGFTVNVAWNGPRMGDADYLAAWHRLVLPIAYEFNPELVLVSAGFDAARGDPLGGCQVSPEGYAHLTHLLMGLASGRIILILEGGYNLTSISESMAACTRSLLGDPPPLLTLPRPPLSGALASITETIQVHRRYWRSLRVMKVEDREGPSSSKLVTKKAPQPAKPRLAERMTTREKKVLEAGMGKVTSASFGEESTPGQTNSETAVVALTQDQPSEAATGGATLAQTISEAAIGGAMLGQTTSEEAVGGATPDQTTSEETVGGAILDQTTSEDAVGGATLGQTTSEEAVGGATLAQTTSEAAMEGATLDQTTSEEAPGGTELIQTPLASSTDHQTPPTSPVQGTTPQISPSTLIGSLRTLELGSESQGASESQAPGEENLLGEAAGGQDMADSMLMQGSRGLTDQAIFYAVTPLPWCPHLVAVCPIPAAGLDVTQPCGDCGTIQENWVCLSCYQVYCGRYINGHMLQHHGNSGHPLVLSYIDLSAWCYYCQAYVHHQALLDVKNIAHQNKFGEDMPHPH
The assay can be described thus: HDAC6 enzyme inhibitory activity (HDAC-Glo I/II Assay kit). In kind it is biochemical. As to conditions: 10 μM; wells without enzyme = 100% inhibition; read-out: HDAC6 inhibitory rate (%) (10 μM). An outline of the steps: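 Sf-9-derived GST-purified full-length HDAC6 + cpd, 60 min RT, 24 mM Tris pH 7.5/0.6 mM glutathione/0.01% Tween-20; add HDAC-Glo substrate-developer, 20 min RT; luminescence. No-enzyme = 100% inhibition.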

SMILES strings stand for the structures.

On to `O=C1c2cc(-c3nnc(C(F)F)o3)ccc2CN1c1ccnn1-c1cccc(F)c1` [Example 453, 6-(5-(difluoro-methyl)-1,3,4-oxadiazol-2-yl)-2-(1-(3-fluoro-phenyl)-1H-pyrazol-5-yl) isoindolin-1-one], for which the inhibition at 10 µM was 99%.
For `O=C1c2cc(-c3nnc(C(F)F)o3)cnc2CN1Cc1ccc(Cl)s1` [Example 454, 6-((5-chloro-2-thienyl)methyl)-3-(5-(difluoro-methyl)-1,3,4-oxadiazol-2-yl)-6,7-dihydro-5H-pyrrolo [3,4-b]pyridin-5-one] the value was 101%; for `Cn1cc(-c2cc(F)cc(F)c2)c(N2Cc3ccc(-c4nnc(C(F)F)o4)cc3C2=O)n1` [Example 455, 6-(5-(difluoro-methyl)-1,3,4-oxadiazol-2-yl)-2-(4-(3,5-difluoro-phenyl)-1-methyl-1H-pyrazol-3-yl) isoindolin-1-one], 102%; for `CCOc1ccccc1CN1Cc2ncc(-c3nnc(C(F)F)o3)cc2C1=O` [Example 456, 3-(5-(difluoro-methyl)-1,3,4-oxadiazol-2-yl)-6-(2-ethoxy-benzyl)-6,7-dihydro-5H-pyrrolo[3,4-b] pyridin-5-one], 100%.
Consider `O=C1c2cc(-c3nnc(C(F)F)o3)cnc2CN1Cc1cc2ccccn2n1` [Example 457, 3-(5-(difluoro-methyl)-1,3,4-oxadiazol-2-yl)-6-(pyrazolo [1,5-a]pyridin-2-ylmethyl)-6,7-dihydro-5H-pyrrolo [3,4-b] pyridin-5-one], for which the inhibition at 10 µM turned out to be 97%.
As for `O=C1c2cc(-c3nnc(C(F)F)o3)cnc2CN1Cc1cnn2ccccc12` [Example 458, 3-(5-(difluoro-methyl)-1,3,4-oxadiazol-2-yl)-6-(pyrazolo [1,5-a]pyridin-3-ylmethyl)-6,7-dihydro-5H-pyrrolo [3,4-b] pyridin-5-one], the inhibition at 10 µM was 100%.
For `Cn1cc(-c2cncc(F)c2)c(N2Cc3ccc(-c4nnc(C(F)F)o4)cc3C2=O)n1` [Example 459, 6-(5-(difluoro-methyl)-1,3,4-oxadiazol-2-yl)-2-(4-(5-fluoro-pyridin-3-yl)-1-methyl-1H-pyrazol-3-yl) isoindolin-1-one] the value was 97%; for `Cn1cc(-c2ccccc2F)c(N2Cc3ccc(-c4nnc(C(F)F)o4)cc3C2=O)n1` [Example 460, 6-(5-(difluoro-methyl)-1,3,4-oxadiazol-2-yl)-2-(4-(2-fluoro-phenyl)-1-methyl-1H-pyrazol-3-yl) isoindolin-1-one], 102%; for `CCC(=O)N[C@@H]1CCCC[C@H]1N1Cc2ncc(-c3nnc(C(F)F)o3)cc2C1=O` [Example 461, N-((1R,2R)-2-(3-(5-(difluoro-methyl)-1,3,4-oxadiazol-2-yl)-5-oxo-5,7-dihydro-6H-pyrrolo[3,4-b]pyridin-6-yl)cyclohexyl) propanamide], 100%.
For the compound `CCCC(=O)N[C@@H]1CCCC[C@H]1N1Cc2ncc(-c3nnc(C(F)F)o3)cc2C1=O` [Example 462, N-((1R,2R)-2-(3-(5-(difluoro-methyl)-1,3,4-oxadiazol-2-yl)-5-oxo-5,7-dihydro-6H-pyrrolo[3,4-b]pyridin-6-yl)cyclohexyl) butanamide], the inhibition at 10 µM was 100%.
Then `O=C(N[C@@H]1CCCC[C@H]1N1Cc2ncc(-c3nnc(C(F)F)o3)cc2C1=O)C1CC1` [Example 463, N-((1R,2R)-2-(3-(5-(difluoro-methyl)-1,3,4-oxadiazol-2-yl)-5-oxo-5,7-dihydro-6H-pyrrolo[3,4-b]pyridin-6-yl)cyclohexyl) cyclopropane-carboxamide], with 101%; and `O=C(N[C@@H]1CCCC[C@H]1N1Cc2ncc(-c3nnc(C(F)F)o3)cc2C1=O)C1CCC1` [Example 464, N-((1R,2R)-2-(3-(5-(difluoro-methyl)-1,3,4-oxadiazol-2-yl)-5-oxo-5,7-dihydro-6H-pyrrolo[3,4-b]pyridin-6-yl)cyclohexyl) cyclobutane-carboxamide], with 101%; and `O=C(N[C@@H]1CCCC[C@H]1N1Cc2ncc(-c3nnc(C(F)F)o3)cc2C1=O)c1ccccc1` [Example 465, N-((1R,2R)-2-(3-(5-(difluoro-methyl)-1,3,4-oxadiazol-2-yl)-5-oxo-5,7-dihydro-6H-pyrrolo[3,4-b]pyridin-6-yl)cyclohexyl) benzamide], with 99%.
As to `O=C(Cc1ccccc1)N[C@@H]1CCCC[C@H]1N1Cc2ncc(-c3nnc(C(F)F)o3)cc2C1=O` [Example 466, N-((1R,2R)-2-(3-(5-(difluoro-methyl)-1,3,4-oxadiazol-2-yl)-5-oxo-5,7-dihydro-6H-pyrrolo[3,4-b]pyridin-6-yl)cyclohexyl)-2-phenyl-acetamide], the inhibition at 10 µM stood at 100%.
Turning to `O=C1c2cc(-c3nnc(C(F)F)o3)ccc2CN1c1ccc(F)cc1-c1ccn[nH]1` [Example 467, 6-(5-(difluoro-methyl)-1,3,4-oxadiazol-2-yl)-2-(4-fluoro-2-(1H-pyrazol-5-yl)phenyl) isoindolin-1-one], the inhibition at 10 µM was 101%.
Then `Cn1cc(-c2cc(F)cc(C#N)c2)c(N2Cc3ccc(-c4nnc(C(F)F)o4)cc3C2=O)n1` [Example 468, 3-(3-(6-(5-(difluoro-methyl)-1,3,4-oxadiazol-2-yl)-1-oxo-1,3-dihydro-2H-isoindol-2-yl)-1-methyl-1H-pyrazol-4-yl)-5-fluoro-benzonitrile], with 100%.
Turning to `O=C1c2cc(-c3nnc(C(F)F)o3)ccc2CN1[C@@H]1CCC(F)(F)C[C@H]1NC(=O)C(F)(F)C(F)(F)F` [Example 469, N-((1R,2R)-2-(6-(5-(difluoromethyl)-1,3,4-oxadiazol-2-yl)-1-oxo-1,3-dihydro-2H-isoindol-2-yl)-5,5-difluorocyclohexyl)-2,2,3,3,3-pentafluoropropanamide], the inhibition at 10 µM was found to be 99%.
For `CC(F)(F)C(=O)N[C@@H]1CC(F)(F)CC[C@H]1N1Cc2ccc(-c3nnc(C(F)F)o3)cc2C1=O` [Example 470, N-((1R,2R)-2-(6-(5-(difluoromethyl)-1,3,4-oxadiazol-2-yl)-1-oxo-1,3-dihydro-2H-isoindol-2-yl)-5,5-difluorocyclohexyl)-2,2-difluoropropanamide] the value was 101%; for `Cn1cc(-c2cc(F)nc(F)c2)c(N2Cc3ccc(-c4nnc(C(F)F)o4)cc3C2=O)n1` [Example 471, 6-(5-(difluoro-methyl)-1,3,4-oxadiazol-2-yl)-2-(4-(2,6-difluoro-pyridin-4-yl)-1-methyl-1H-pyrazol-3-yl) isoindolin-1-one], 100%.
On to `O=C1c2cc(-c3nnc(C(F)F)o3)ccc2CN1c1ccnn1-c1cccc(Cl)c1` [Example 472, 2-(1-(3-chloro-phenyl)-1H-pyrazol-5-yl)-6-(5-(difluoro-methyl)-1,3,4-oxadiazol-2-yl) isoindolin-1-one], for which the inhibition at 10 µM turned out to be 100%.
Consider `O=C1c2cc(-c3nnc(C(F)F)o3)ccc2CN1c1ccnn1-c1ccc(F)cc1` [Example 473, 6-(5-(difluoro-methyl)-1,3,4-oxadiazol-2-yl)-2-(1-(4-fluoro-phenyl)-1H-pyrazol-5-yl) isoindolin-1-one], for which the inhibition at 10 µM was found to be 99%.
For `Cn1cc(C2=CCC(F)(F)CC2)c(N2Cc3ccc(-c4nnc(C(F)F)o4)cc3C2=O)n1` [Example 474, 2-(4-(4,4-difluorocyclo-hex-1-en-1-yl)-1-methyl-1H-pyrazol-3-yl)-6-(5-(difluoro-methyl)-1,3,4-oxadiazol-2-yl) isoindolin-1-one] the value was 99%.

Values taken from US10435399B2, “HDAC6 inhibitory heterocyclic compound” (TAKEDA PHARMACEUTICAL COMPANY LIMITED, priority 2017, dated 2019).
